The text below walks through data of US9730447B2, “Fungicidal amides” (E I DU PONT DE NEMOURS AND COMPANY, priority 2013, dated 2017).

Assay type in all cases: in vivo
Test [1] deals with Puccinia recondite f. sp. tritici. Description: Test D: preventive spray on wheat seedlings, Puccinia recondite f. sp. tritici (wheat leaf rust), visual disease rating. The settings on record: 100 = 100% disease control, 0 = no control, unmarked values. In short, it runs like this: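 Wheat seedlings sprayed to run-off with 40 ppm (160 g ai/ha) or 10 ppm (40 g ai/ha) suspension in acetone/water with 250 ppm surfactant, inoculated next day with leaf rust spores. After 24 h saturated at 20 °C then 6 days at 20 °C, visual rating of disease control (0–100) relative to controls.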

The subject of the next test is Botrytis cinerea. Nature of the test: Test A: preventive spray on tomato seedlings, Botrytis cinerea (gray mold), visual disease rating. The settings on record: 100 = 100% disease control, 0 = no control relative to controls, unmarked values. An excerpt:
General protocol for preparing test suspensions for Tests A-E: the test compounds were first dissolved in acetone in an amount equal to 3% of the final volume and then suspended at the desired concentration (in ppm) in acetone and purified water (50/50 mix by volume) containing 250 ppm of the surfactant Trem® 014 (polyhydric alcohol esters). The resulting test suspensions were then used in Tests A-E. Compounds were sprayed with either a 40 ppm or 10 ppm (*) test suspension to the point of run-off on the test plants which is the equivalent of a rate of 160 g ai/ha or 40 g ai/ha, respectively.
The test suspension was sprayed to the point of run-off on tomato seedlings. The following day the seedlings were inoculated with a spore suspension of Botrytis cinerea (the causal agent of gray mold on many crops) and incubated in a saturated atmosphere at 20° C. for 48 h, and moved to a growth chamber at 27° C. for 2 days, after which time visual disease ratings were made.
Results for Tests A-E are given in Table A. In the Table, a rating of 100 indicates 100% disease control and a rating of 0 indicates no disease control (relative to the controls). A dash (-) indicates no test results.

In test [2] the test system is Erysiphe graminis f. sp. tritici. Nature of the test: Test E: preventive spray on wheat seedlings, Erysiphe graminis f. sp. tritici (wheat powdery mildew), visual disease rating. The following applies: 100 = 100% disease control, 0 = no control, unmarked values. Put shortly: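 Wheat seedlings were sprayed to run-off with 40 or 10 ppm suspension (160 or 40 g ai/ha) and dusted with spores the next day. They were then kept 8 days at 20 °C. Disease was rated visually as % control relative to untreated controls (0–100).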

For a further test, the system named is Septoria tritici. Description: Test C: preventive spray on wheat seedlings, Septoria tritici (wheat leaf blotch), visual disease rating. The settings on record: 100 = 100% disease control, 0 = no control, unmarked values. Put shortly: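 Wheat seedlings sprayed to run-off at 40 ppm or 10 ppm (160 or 40 g ai/ha) in acetone/water with surfactant, inoculated with Septoria tritici spores next day. Held 48 h saturated at 24 °C, then 21 days at 20 °C. Visual rating scored as % disease control relative to controls.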

For test [3], the system named is Stagonospora nodorum (also known as Septoria nodorum). Description: Test B: preventive spray on wheat seedlings, Stagonospora nodorum (wheat glume blotch), visual disease rating. The following applies: 100 = 100% disease control, 0 = no control, unmarked values. In short, it runs like this: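 Compounds in acetone/water (50/50) with 250 ppm Trem 014 surfactant were sprayed to run-off at 40 ppm (160 g ai/ha) or 10 ppm (40 g ai/ha). Seedlings were inoculated with S. nodorum spores the next day, then held 48 h saturated at 20 °C and 6 days in a growth chamber at 20 °C. Visual rating as % disease control vs untreated.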

SMILES strings stand for the structures.

Consider `COc1cccc(-c2cnn(-c3ccc(-c4ccccc4NC(=O)c4cn(C)nc4C(F)F)cn3)c2)c1` [compound 9], for which, in test [1], the “Test D disease control rating” value was found to be 100%. The “Test A disease control rating” value in the test on Botrytis cinerea amounted to 100%. Besides, the “Test E disease control rating” value in test [2] is 100%. Moreover, the “Test C disease control rating” value in the test with Septoria tritici stood at 100%. Besides, in test [3], the “Test B disease control rating” value is recorded as 100%.
In the case of `COc1cc(OC)cc(-c2cnn(-c3ccc(-c4ccccc4NC(=O)c4cn(C)nc4C(F)F)cn3)c2)c1` [compound 10], the “Test D disease control rating” value in test [1] was found to be 100%. Also, the “Test A disease control rating” value in the test on Botrytis cinerea is 100%. Besides, in test [2], the “Test E disease control rating” value stood at 97%. Moreover, the “Test C disease control rating” value with Septoria tritici was determined as 100%. Also, in test [3], the “Test B disease control rating” value came out at 100%.
For the compound `Cn1cc(C(=O)Nc2ccccc2-c2ccc(-n3ccc(Br)n3)nc2)c(C(F)F)n1` [compound 11], the “Test D disease control rating” value in test [1] was determined as 100%. In addition, the “Test A disease control rating” value in the test on Botrytis cinerea is 100%. Moreover, in test [2], the “Test E disease control rating” value amounted to 99%. For the same compound, in the test with Septoria tritici, the “Test C disease control rating” value was found to be 100%. Further, the “Test B disease control rating” value in test [3] is 100%.
Regarding `O=C(Nc1ccccc1-c1ccc(-n2ccc(Br)n2)nc1)c1ncccc1C(F)(F)F` [compound 13], the “Test D disease control rating” value in test [1] is recorded as 100%. Also, in the test on Botrytis cinerea, the “Test A disease control rating” value worked out at 98%. In addition, in test [2], the “Test E disease control rating” value came to 99%. The “Test C disease control rating” value in the test with Septoria tritici came to 100%. Further, the “Test B disease control rating” value in test [3] is 98%.
For `Cc1ccc(-c2ccc(-c3ccccc3NC(=O)c3cn(C)nc3C(F)F)cn2)s1` [compound 21], the “Test D disease control rating” value in test [1] was 100%. The “Test A disease control rating” value in the test with Botrytis cinerea is 99%. Also, the “Test E disease control rating” value in test [2] came to 43%. Also, the “Test C disease control rating” value with Septoria tritici came to 81%. In addition, the “Test B disease control rating” value in test [3] stood at 97%.
With `Cc1ccc(-c2ccc(-c3ccccc3NC(=O)c3cn(C)nc3C(F)F)cn2)o1` [compound 22], the “Test D disease control rating” value in test [1] is given as 100%. Also, in the test with Botrytis cinerea, the “Test A disease control rating” value is recorded as 94%. Moreover, the “Test E disease control rating” value in test [2] is listed as 21%. For the same compound, the “Test C disease control rating” value with Septoria tritici was 33%. In test [3], the “Test B disease control rating” value was found to be 0%.
For `O=C(Nc1ccccc1-c1ccc(-n2ccc(C(F)(F)F)n2)nc1)c1ncccc1Cl` [compound 23], in test [1], the “Test D disease control rating” value turned out to be 96%. Besides, the “Test A disease control rating” value with Botrytis cinerea came out at 20%. Also, the “Test E disease control rating” value in test [2] worked out at 99%. For the same compound, the “Test C disease control rating” value with Septoria tritici came to 100%. In addition, the “Test B disease control rating” value in test [3] was 0%.
For `O=C(Nc1ccccc1-c1ccc(-n2ccc(C(F)(F)F)n2)nc1)c1nccnc1C(F)(F)F` [compound 24], the “Test D disease control rating” value in test [1] is given as 100%. For the same compound, the “Test A disease control rating” value in the test on Botrytis cinerea worked out at 99%. In addition, the “Test E disease control rating” value in test [2] is recorded as 100%. Also, the “Test C disease control rating” value with Septoria tritici turned out to be 100%. In addition, the “Test B disease control rating” value in test [3] was found to be 100%.
Turning to `O=C(Nc1ccccc1-c1ccc(-n2ccc(C(F)(F)F)n2)nc1)c1nccnc1Cl` [compound 25], the “Test D disease control rating” value in test [1] is 98%. In the test with Botrytis cinerea, the “Test A disease control rating” value came to 99%. In addition, the “Test E disease control rating” value in test [2] is 90%. Also, the “Test C disease control rating” value in the test with Septoria tritici is on record as 100%. Moreover, the “Test B disease control rating” value in test [3] came to 82%.
Consider `O=C(Nc1ccccc1-c1ccc(-n2ccc(C(F)(F)F)n2)nc1)c1ncccc1C(F)(F)F` [compound 26], for which the “Test D disease control rating” value in test [1] is 99%. The “Test A disease control rating” value in the test on Botrytis cinerea is given as 88%. The “Test E disease control rating” value in test [2] worked out at 100%. Moreover, the “Test C disease control rating” value with Septoria tritici was 100%. The “Test B disease control rating” value in test [3] turned out to be 90%.
`O=C(Nc1ccccc1-c1ccc(-n2cc(-c3cccc(F)c3)cn2)nc1)c1ncccc1C(F)(F)F` [compound 27]: the “Test D disease control rating” value in test [1] came out at 98%. Besides, the “Test A disease control rating” value in the test on Botrytis cinerea is recorded as 89%. Besides, in test [2], the “Test E disease control rating” value came out at 96%. Also, the “Test C disease control rating” value in the test on Septoria tritici was determined as 100%. In addition, in test [3], the “Test B disease control rating” value is 99%.
The matching figures for `O=C(Nc1ccccc1-c1ccc(-n2cc(-c3cc(F)cc(F)c3)cn2)nc1)c1ncccc1C(F)(F)F` [compound 28]: 99%, 99%, 96%, 100% and 99%.
Take `O=C(Nc1ccccc1-c1ccc(-n2cc(-c3ccccc3F)cn2)nc1)c1ncccc1C(F)(F)F` [compound 29]: the “Test D disease control rating” value in test [1] is listed as 89%. The “Test A disease control rating” value in the test on Botrytis cinerea stood at 77%. Further, the “Test E disease control rating” value in test [2] is reported as 82%. In addition, the “Test C disease control rating” value with Septoria tritici is listed as 100%. In addition, the “Test B disease control rating” value in test [3] came to 99%.
With `O=C(Nc1ccccc1-c1ccc(-n2cc(-c3ccc(F)cc3)cn2)nc1)c1ncccc1C(F)(F)F` [compound 30], the “Test D disease control rating” value in test [1] was determined as 89%. The “Test A disease control rating” value in the test with Botrytis cinerea is listed as 33%. Besides, the “Test E disease control rating” value in test [2] was 69%. For the same compound, the “Test C disease control rating” value in the test with Septoria tritici amounted to 91%. In addition, the “Test B disease control rating” value in test [3] is given as 82%.
As for `Cn1cc(C(=O)Nc2ccccc2-c2ccc(-n3cc(Br)cn3)nc2)c(C(F)F)n1` [compound 31], the “Test D disease control rating” value in test [1] stood at 100%. Besides, the “Test A disease control rating” value in the test with Botrytis cinerea amounted to 100%. Also, the “Test E disease control rating” value in test [2] is 99%. Also, the “Test C disease control rating” value in the test with Septoria tritici is listed as 100%. For the same compound, the “Test B disease control rating” value in test [3] stood at 100%.
Regarding `O=C(Nc1ccccc1-c1ccc(-n2cc(Cl)cn2)nc1)c1ncccc1C(F)(F)F` [compound 32], the “Test D disease control rating” value in test [1] turned out to be 100%. The “Test A disease control rating” value in the test on Botrytis cinerea turned out to be 99%. The “Test E disease control rating” value in test [2] turned out to be 99%. The “Test C disease control rating” value with Septoria tritici was 100%. Besides, the “Test B disease control rating” value in test [3] came to 100%.
For the compound `O=C(Nc1ccccc1-c1cnc(-n2ccc(C(F)(F)F)n2)c(Cl)c1)c1ccccc1C(F)(F)F` [compound 33], in test [1], the “Test D disease control rating” value is 100%. Also, the “Test A disease control rating” value with Botrytis cinerea came out at 15%. In addition, in test [2], the “Test E disease control rating” value was 99%. In addition, the “Test C disease control rating” value in the test with Septoria tritici was determined as 100%. For the same compound, the “Test B disease control rating” value in test [3] turned out to be 60%.
For the compound `Cn1cc(C(=O)Nc2ccccc2-c2cnc(-n3ccc(C(F)(F)F)n3)c(Cl)c2)c(C(F)F)n1` [compound 35], the “Test D disease control rating” value in test [1] turned out to be 100%. Further, the “Test A disease control rating” value in the test on Botrytis cinerea turned out to be 97%. Besides, the “Test E disease control rating” value in test [2] was 100%. Besides, the “Test C disease control rating” value with Septoria tritici was 100%. The “Test B disease control rating” value in test [3] is 100%.
In the case of `Cc1cc(-c2ccccc2NC(=O)c2ccccc2C(F)(F)F)cnc1-n1ccc(C(F)(F)F)n1` [compound 36], the “Test D disease control rating” value in test [1] is reported as 100%. For the same compound, the “Test A disease control rating” value in the test on Botrytis cinerea is 28%. The “Test E disease control rating” value in test [2] came out at 99%. Besides, the “Test C disease control rating” value in the test on Septoria tritici is listed as 100%. The “Test B disease control rating” value in test [3] is listed as 98%.
As to `Cc1cc(-c2ccccc2NC(=O)c2ncccc2C(F)(F)F)cnc1-n1ccc(C(F)(F)F)n1` [compound 37], in test [1], the “Test D disease control rating” value turned out to be 100%. Also, the “Test A disease control rating” value with Botrytis cinerea is given as 95%. In addition, the “Test E disease control rating” value in test [2] was 100%. Further, in the test on Septoria tritici, the “Test C disease control rating” value is listed as 100%. Besides, in test [3], the “Test B disease control rating” value is on record as 100%.
